What was measured:
[1] = The drug is tested on Blautia hansenii strain: DSM20583 for biotransformation. The drug concentrations were measured before and after a 12-h incubation by liquid-chromatography-coupled mass spectrometry (LC–MS); details: 2 µM
[2] = The drug is tested on Bacteroides finegoldii strain: DSM17565 for biotransformation. The drug concentrations were measured before and after a 12-h incubation by liquid-chromatography-coupled mass spectrometry (LC–MS); details: 2 µM
[3] = bacteroides thetaiotaomicron, 12 h, 2 µM
Description: The drug is tested on Bacteroides thetaiotaomicron strain: 7330 for biotransformation. The drug concentrations were measured before and after a 12-h incubation by liquid-chromatography-coupled mass spectrometry (LC–MS)

[4] = The drug is tested on Enterococcus faecalis strain: V583 for biotransformation. The drug concentrations were measured before and after a 12-h incubation by liquid-chromatography-coupled mass spectrometry (LC–MS); details: 2 µM
[5] = The drug is tested on Dorea formicigenerans strain: ATCC27755 for biotransformation. The drug concentrations were measured before and after a 12-h incubation by liquid-chromatography-coupled mass spectrometry (LC–MS); details: 2 µM
[6] = The drug is tested on Eubacterium hallii strain: DSM3353 for biotransformation. The drug concentrations were measured before and after a 12-h incubation by liquid-chromatography-coupled mass spectrometry (LC–MS); details: anaerobutyricum hallii, 2 µM
[7] = The drug is tested on Bacteroides caccae strain: ATCC43185 for biotransformation. The drug concentrations were measured before and after a 12-h incubation by liquid-chromatography-coupled mass spectrometry (LC–MS); details: 2 µM
[8] = The drug is tested on Eubacterium ventriosum strain: ATCC27560 for biotransformation. The drug concentrations were measured before and after a 12-h incubation by liquid-chromatography-coupled mass spectrometry (LC–MS); type: ADME; parameters: dose 2 uM, timepoint 0 vs 12 hours; details: 2 µM
[9] = The drug is tested on Anaerococcus hydrogenalis strain: DSM7454 for biotransformation. The drug concentrations were measured before and after a 12-h incubation by liquid-chromatography-coupled mass spectrometry (LC–MS); details: 2 µM
[10] = The drug is tested on Bacteroides fragilis strain: ATCC43859 for biotransformation. The drug concentrations were measured before and after a 12-h incubation by liquid-chromatography-coupled mass spectrometry (LC–MS); details: 2 µM
[11] = The drug is tested on Clostridium symbiosum strain: ATCC14940 for biotransformation. The drug concentrations were measured before and after a 12-h incubation by liquid-chromatography-coupled mass spectrometry (LC–MS); details: 2 µM
[12] = The drug is tested on Bifidobacterium breve strain: DSM20213 for biotransformation. The drug concentrations were measured before and after a 12-h incubation by liquid-chromatography-coupled mass spectrometry (LC–MS); details: 2 µM
[13] = bacteroides thetaiotaomicron, 12 h, 2 µM; remark: listed apart in the source
Description: The drug is tested on Bacteroides thetaiotaomicron strain: VPI-5482 for biotransformation. The drug concentrations were measured before and after a 12-h incubation by liquid-chromatography-coupled mass spectrometry (LC–MS)

[14] = The drug is tested on Clostridium scindens strain: ATCC35704 for biotransformation. The drug concentrations were measured before and after a 12-h incubation by liquid-chromatography-coupled mass spectrometry (LC–MS); details: 2 µM
[15] = The drug is tested on Bacteroides ovatus strain: ATCC8483 for biotransformation. The drug concentrations were measured before and after a 12-h incubation by liquid-chromatography-coupled mass spectrometry (LC–MS); details: 2 µM
[16] = The drug is tested on Parabacteroides merdae strain: ATCC43184 for biotransformation. The drug concentrations were measured before and after a 12-h incubation by liquid-chromatography-coupled mass spectrometry (LC–MS); details: 2 µM
[17] = enterocloster bolteae, 12 h, 2 µM
Description: The drug is tested on Clostridium bolteae strain: ATCCBAA-613 for biotransformation. The drug concentrations were measured before and after a 12-h incubation by liquid-chromatography-coupled mass spectrometry (LC–MS)

[18] = The drug is tested on Bacteroides fragilis strain: HMW615 for biotransformation. The drug concentrations were measured before and after a 12-h incubation by liquid-chromatography-coupled mass spectrometry (LC–MS); details: 2 µM
[19] = The drug is tested on Clostridium ramosum strain: DSM1402 for biotransformation. The drug concentrations were measured before and after a 12-h incubation by liquid-chromatography-coupled mass spectrometry (LC–MS); details: thomasclavelia ramosa, 2 µM

Row | Bacterial Biotransformation [1] | Bacterial Biotransformation [2] | Bacterial Biotransformation [3] | Bacterial Biotransformation [4] | Bacterial Biotransformation [5] | Bacterial Biotransformation [6] | Bacterial Biotransformation [7] | Bacterial Biotransformation [8] | Bacterial Biotransformation [9] | Bacterial Biotransformation [10] | Bacterial Biotransformation [11] | Bacterial Biotransformation [12] | Bacterial Biotransformation [13] | Bacterial Biotransformation [14] | Bacterial Biotransformation [15] | Bacterial Biotransformation [16] | Bacterial Biotransformation [17] | Bacterial Biotransformation [18] | Bacterial Biotransformation [19] | Structure (SMILES)
1 | Compound metabolized | Compound NOT metabolized | Compound NOT metabolized | Compound NOT metabolized | Compound NOT metabolized | Compound NOT metabolized | Compound NOT metabolized | Compound NOT metabolized | Compound NOT metabolized |  | Compound NOT metabolized | Compound NOT metabolized | Compound NOT metabolized | Compound NOT metabolized | Compound NOT metabolized | Compound metabolized |  | Compound NOT metabolized |  | OCCN(CCO)c1nc(N2CCCCC2)c2nc(N(CCO)CCO)nc(N3CCCCC3)c2n1 [DIPYRIDAMOLE]
2 | Compound NOT metabolized | Compound NOT metabolized | Compound NOT metabolized | Compound NOT metabolized | Compound NOT metabolized | Compound NOT metabolized | Compound NOT metabolized | Compound NOT metabolized | Compound NOT metabolized |  | Compound NOT metabolized | Compound NOT metabolized | Compound NOT metabolized | Compound NOT metabolized | Compound NOT metabolized | Compound NOT metabolized | Compound NOT metabolized | Compound NOT metabolized |  | CN(C)CCC=C1c2ccccc2COc2ccccc21 [DOXEPIN]
3 | Compound NOT metabolized | Compound NOT metabolized | Compound NOT metabolized | Compound NOT metabolized | Compound NOT metabolized | Compound NOT metabolized | Compound NOT metabolized | Compound NOT metabolized | Compound NOT metabolized |  | Compound NOT metabolized | Compound NOT metabolized |  | Compound NOT metabolized | Compound NOT metabolized | Compound NOT metabolized | Compound NOT metabolized | Compound NOT metabolized | Compound NOT metabolized | CN1CCN2c3ccccc3Cc3ccccc3C2C1 (stereo not given) [MIANSERIN]

The next lines start with the compound.

Row | Structure (SMILES) | Bacterial Biotransformation [1] | Bacterial Biotransformation [2] | Bacterial Biotransformation [3] | Bacterial Biotransformation [4] | Bacterial Biotransformation [5] | Bacterial Biotransformation [6] | Bacterial Biotransformation [7] | Bacterial Biotransformation [8] | Bacterial Biotransformation [9] | Bacterial Biotransformation [10] | Bacterial Biotransformation [11] | Bacterial Biotransformation [12] | Bacterial Biotransformation [13] | Bacterial Biotransformation [14] | Bacterial Biotransformation [15] | Bacterial Biotransformation [16] | Bacterial Biotransformation [17] | Bacterial Biotransformation [18] | Bacterial Biotransformation [19]
4 | CN1CCC(OC(c2ccccc2)c2ccccc2)CC1 | Compound NOT metabolized | Compound NOT metabolized | Compound NOT metabolized | Compound NOT metabolized | Compound NOT metabolized | Compound NOT metabolized | Compound NOT metabolized | Compound NOT metabolized | Compound NOT metabolized | Compound NOT metabolized | Compound NOT metabolized | Compound NOT metabolized | Compound NOT metabolized | Compound NOT metabolized | Compound NOT metabolized | Compound NOT metabolized |  |  | 
5 | COc1ccc([C@@H]2Sc3ccccc3N(CCN(C)C)C(=O)[C@@H]2OC(C)=O)cc1 [DILTIAZEM] | Compound metabolized | Compound metabolized | Compound metabolized | Compound NOT metabolized | Compound metabolized | Compound metabolized | Compound metabolized | Compound NOT metabolized | Compound NOT metabolized | Compound NOT metabolized | Compound metabolized | Compound NOT metabolized | Compound metabolized | Compound NOT metabolized | Compound metabolized | Compound metabolized | Compound NOT metabolized |  | 
6 | CCOC(=O)[C@H](CCc1ccccc1)N[C@@H](C)C(=O)N1CCC[C@H]1C(=O)O.O=C(O)/C=C\C(=O)O [ENALAPRIL MALEATE] | Compound metabolized | Compound NOT metabolized |  | Compound NOT metabolized | Compound NOT metabolized | Compound NOT metabolized | Compound NOT metabolized | Compound NOT metabolized | Compound NOT metabolized |  | Compound NOT metabolized | Compound NOT metabolized |  | Compound NOT metabolized | Compound NOT metabolized | Compound NOT metabolized | Compound NOT metabolized | Compound NOT metabolized | Compound NOT metabolized
7 | CCN(CC)C(C)CN1c2ccccc2Sc2ccccc21 (stereo not given) [ETHOPROPAZINE] | Compound metabolized | Compound NOT metabolized | Compound metabolized | Compound NOT metabolized | Compound NOT metabolized | Compound NOT metabolized | Compound metabolized | Compound NOT metabolized | Compound NOT metabolized |  | Compound NOT metabolized | Compound NOT metabolized | Compound metabolized | Compound NOT metabolized | Compound metabolized |  | Compound NOT metabolized |  | 
8 | CC(C)c1c(CN(C)C(C)Cc2ccccc2)n(C)n(-c2ccccc2)c1=O (stereo not given) [FAMPROFAZONE] | Compound metabolized | Compound metabolized | Compound metabolized | Compound NOT metabolized | Compound metabolized | Compound NOT metabolized | Compound NOT metabolized | Compound NOT metabolized | Compound metabolized |  | Compound NOT metabolized | Compound NOT metabolized | Compound metabolized | Compound NOT metabolized | Compound metabolized | Compound metabolized | Compound metabolized |  | 
9 | CC1Cc2ccccc2N1NC(=O)c1ccc(Cl)c(S(N)(=O)=O)c1 (stereo not given) [INDAPAMIDE] | Compound NOT metabolized |  | Compound NOT metabolized | Compound NOT metabolized | Compound NOT metabolized | Compound NOT metabolized | Compound NOT metabolized |  | Compound NOT metabolized |  |  | Compound NOT metabolized | Compound NOT metabolized | Compound NOT metabolized | Compound NOT metabolized | Compound NOT metabolized | Compound NOT metabolized | Compound NOT metabolized | Compound NOT metabolized
10 | COc1ccc2cc([C@H](C)C(=O)O)ccc2c1 [NAPROXEN] | Compound NOT metabolized |  | Compound NOT metabolized | Compound NOT metabolized | Compound NOT metabolized | Compound NOT metabolized | Compound NOT metabolized | Compound NOT metabolized | Compound NOT metabolized | Compound metabolized | Compound NOT metabolized | Compound NOT metabolized | Compound NOT metabolized | Compound NOT metabolized |  |  | Compound NOT metabolized | Compound metabolized | 

Reference: ChEMBL document CHEMBL5303573, “Mapping human microbiome drug metabolism by gut bacteria and their genes” (Nature, 2019)
